Measurements as given in patent publication US9765069B2, “Antimicrobial compounds” (OXFORD UNIVERSITY INNOVATION LIMITED, priority 2012, dated 2017).
Values after ≈ are worked out from the molar mass of the structure shown.

Columns and labels:
S1 = assay: MIC determination (bacteria), strain S1; assay type: cell-based, S. aureus; settings: 2-fold broth dilution
Method: (§1) MIC determination (bacteria); MICs were determined based on Clinical and Laboratory Standards Institute (CLSI) methodology (Methods for dilution antimicrobial susceptibility tests for bacteria that grow aerobically; Approved Standard—seventh edition. 2006, M7-A7, CLSI, Wayne Pa.) by a 2-fold broth dilution technique in Mueller Hinton (pH7.4 Biorad). For S. pneumoniae, the medium was supplemented with 2.5% laked horse blood. For H. influenzae, the medium was haemophilus test medium (H.T.M.). Overnight cultures were diluted to obtain the final inoculum of 10^5 cfu/well. Incubation was 37° C. overnight in ambient air. The MIC was defined as the lowest concentration which inhibited all visual growth and expressed in μg/ml. For each bacterial species, all of the molecules were tested in the same experiment in order to give a head-to-head comparison.

S26 = assay: MIC determination (bacteria), strain S26; assay type: cell-based, S. aureus; settings: 2-fold broth dilution
Method: as §1

S4 = assay: MIC determination (bacteria), strain S4; assay type: cell-based, S. aureus; settings: 2-fold broth dilution
Method: as §1

[1] = system: S2 (S. aureus 2, MRSA in vivo); assay: MIC determination (bacteria), strain S2; assay type: cell-based; settings: 2-fold broth dilution
Method: as §1

E1 = assay: MIC determination (bacteria), strain E1; assay type: cell-based, enterococcus; settings: 2-fold broth dilution
Method: as §1

E2 = assay: MIC determination (bacteria), strain E2; assay type: cell-based, enterococcus; settings: 2-fold broth dilution
Method: as §1

P1 = assay: MIC determination (bacteria), strain P1; assay type: cell-based, S. pneumoniae; settings: 2-fold broth dilution
Method: as §1

P9 = assay: MIC determination (bacteria), strain P9; assay type: cell-based, S. pneumoniae; settings: 2-fold broth dilution
Method: as §1

P9B = assay: MIC determination (bacteria), strain P9B; assay type: cell-based, S. pneumoniae; settings: 2-fold broth dilution
Method: as §1

H3 = assay: MIC determination (bacteria), strain H3; assay type: cell-based, H. influenzae; settings: haemophilus test medium
Method: as §1

H4 = assay: MIC determination (bacteria), strain H4; assay type: cell-based, H. influenzae; settings: haemophilus test medium
Method: as §1

S. aureus membrane = assay: In vitro activity in depolarization of S. aureus membrane; assay type: cell-based; settings: read-out: DEP (IC50)
Text: (§2) These properties can be determined according to techniques that are well known in the art.

[2] = system: mammalian_red blood cell membrane; assay: In vitro mammalian red blood cell membrane lysis activity; assay type: cell-based; settings: Active or inactive at 100 μM
Text: as §2

[3] = system: human embryonic kidney 293 cells; assay: in vitro toxicities against human embryonic kidney 293 cells; assay type: cell-based; settings: human embryonic kidney 293 cells
Text: as §2

[4] = system: human peripheral blood cells; assay: in vitro toxicities human peripheral blood cells; assay type: cell-based; settings: human peripheral blood cells
Text: as §2

[5] = aqueous solubility at pH 7.4; assay type: physicochemical; settings: aqueous solubility at pH 7.4 (water with 2% DMSO)
Text: as §2

E. Coli RNAP = E. Coli RNAP (Escherichia coli, UniProt P0A8T7+P0A8V2); assay: In vitro activity against E. Coli RNAP; assay type: biochemical
Text: as §2

Chain of E. Coli RNAP (P0A8V2 whole entry): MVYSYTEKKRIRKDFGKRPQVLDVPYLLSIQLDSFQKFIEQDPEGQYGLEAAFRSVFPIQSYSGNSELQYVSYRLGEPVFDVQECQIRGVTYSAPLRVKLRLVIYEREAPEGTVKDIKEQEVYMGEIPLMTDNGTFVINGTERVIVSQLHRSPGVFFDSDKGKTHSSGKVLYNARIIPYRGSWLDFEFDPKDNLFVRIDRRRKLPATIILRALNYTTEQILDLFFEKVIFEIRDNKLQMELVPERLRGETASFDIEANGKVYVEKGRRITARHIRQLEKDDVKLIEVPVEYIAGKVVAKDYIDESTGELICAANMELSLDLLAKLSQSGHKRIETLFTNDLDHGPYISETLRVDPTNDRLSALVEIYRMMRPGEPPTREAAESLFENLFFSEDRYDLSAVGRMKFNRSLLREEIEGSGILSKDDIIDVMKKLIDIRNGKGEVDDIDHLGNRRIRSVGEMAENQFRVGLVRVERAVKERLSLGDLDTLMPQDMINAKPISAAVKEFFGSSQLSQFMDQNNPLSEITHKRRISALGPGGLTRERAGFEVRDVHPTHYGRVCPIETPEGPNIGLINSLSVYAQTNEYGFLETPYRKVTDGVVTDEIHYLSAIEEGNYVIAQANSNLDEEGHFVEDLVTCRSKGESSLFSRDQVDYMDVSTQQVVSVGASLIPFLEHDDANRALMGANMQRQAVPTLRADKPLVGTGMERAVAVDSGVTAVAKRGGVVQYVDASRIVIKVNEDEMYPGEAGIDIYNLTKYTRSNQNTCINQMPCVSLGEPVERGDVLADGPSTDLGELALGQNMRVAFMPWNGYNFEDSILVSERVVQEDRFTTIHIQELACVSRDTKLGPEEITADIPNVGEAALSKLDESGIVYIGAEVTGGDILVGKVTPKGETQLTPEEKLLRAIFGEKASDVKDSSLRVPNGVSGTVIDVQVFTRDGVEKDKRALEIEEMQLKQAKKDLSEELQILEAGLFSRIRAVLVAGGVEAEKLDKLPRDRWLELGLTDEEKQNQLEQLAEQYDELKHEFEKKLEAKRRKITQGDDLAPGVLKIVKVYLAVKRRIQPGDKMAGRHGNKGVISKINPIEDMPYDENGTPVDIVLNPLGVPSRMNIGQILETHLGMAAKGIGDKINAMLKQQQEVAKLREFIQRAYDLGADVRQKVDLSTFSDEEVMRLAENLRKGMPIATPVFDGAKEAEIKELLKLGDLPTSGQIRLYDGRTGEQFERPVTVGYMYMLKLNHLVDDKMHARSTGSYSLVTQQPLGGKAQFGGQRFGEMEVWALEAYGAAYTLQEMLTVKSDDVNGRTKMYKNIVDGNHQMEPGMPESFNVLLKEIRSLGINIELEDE
Chain of E. Coli RNAP (P0A8T7 whole entry): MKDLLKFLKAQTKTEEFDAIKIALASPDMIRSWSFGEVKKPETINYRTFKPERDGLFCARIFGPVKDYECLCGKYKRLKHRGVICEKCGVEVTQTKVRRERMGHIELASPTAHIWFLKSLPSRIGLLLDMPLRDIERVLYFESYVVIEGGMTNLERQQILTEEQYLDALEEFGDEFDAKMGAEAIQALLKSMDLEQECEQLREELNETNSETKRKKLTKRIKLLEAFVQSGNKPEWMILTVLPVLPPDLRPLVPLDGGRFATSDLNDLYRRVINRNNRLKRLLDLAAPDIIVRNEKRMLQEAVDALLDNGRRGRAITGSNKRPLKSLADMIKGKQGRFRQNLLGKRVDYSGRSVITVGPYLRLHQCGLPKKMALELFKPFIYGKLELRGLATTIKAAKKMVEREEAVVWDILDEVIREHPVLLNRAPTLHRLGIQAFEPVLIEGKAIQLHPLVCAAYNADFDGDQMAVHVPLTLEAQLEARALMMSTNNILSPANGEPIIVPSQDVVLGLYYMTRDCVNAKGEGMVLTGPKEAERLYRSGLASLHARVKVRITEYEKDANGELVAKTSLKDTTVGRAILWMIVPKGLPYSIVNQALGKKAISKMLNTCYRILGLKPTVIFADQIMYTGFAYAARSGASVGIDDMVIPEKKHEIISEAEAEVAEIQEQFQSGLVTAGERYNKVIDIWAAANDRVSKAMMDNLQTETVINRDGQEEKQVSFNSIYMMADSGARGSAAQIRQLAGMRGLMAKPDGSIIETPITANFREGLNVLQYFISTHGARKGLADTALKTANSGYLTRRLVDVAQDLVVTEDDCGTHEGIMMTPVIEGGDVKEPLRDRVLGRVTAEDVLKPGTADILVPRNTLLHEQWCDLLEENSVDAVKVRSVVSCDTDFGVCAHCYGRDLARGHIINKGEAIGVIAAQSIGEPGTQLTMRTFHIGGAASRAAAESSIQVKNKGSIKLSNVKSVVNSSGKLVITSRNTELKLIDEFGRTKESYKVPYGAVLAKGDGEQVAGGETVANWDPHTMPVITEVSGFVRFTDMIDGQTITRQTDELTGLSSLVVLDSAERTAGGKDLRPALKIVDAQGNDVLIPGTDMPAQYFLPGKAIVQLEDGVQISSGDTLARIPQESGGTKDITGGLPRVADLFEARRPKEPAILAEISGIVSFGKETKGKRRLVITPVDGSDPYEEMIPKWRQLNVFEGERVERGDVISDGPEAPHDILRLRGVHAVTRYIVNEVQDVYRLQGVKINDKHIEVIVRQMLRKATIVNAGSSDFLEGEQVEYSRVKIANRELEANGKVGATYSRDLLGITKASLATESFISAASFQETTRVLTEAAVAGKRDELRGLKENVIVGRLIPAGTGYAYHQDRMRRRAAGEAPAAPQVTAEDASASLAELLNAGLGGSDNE
Chain of E. Coli RNAP (P0A7Z4 whole entry partner): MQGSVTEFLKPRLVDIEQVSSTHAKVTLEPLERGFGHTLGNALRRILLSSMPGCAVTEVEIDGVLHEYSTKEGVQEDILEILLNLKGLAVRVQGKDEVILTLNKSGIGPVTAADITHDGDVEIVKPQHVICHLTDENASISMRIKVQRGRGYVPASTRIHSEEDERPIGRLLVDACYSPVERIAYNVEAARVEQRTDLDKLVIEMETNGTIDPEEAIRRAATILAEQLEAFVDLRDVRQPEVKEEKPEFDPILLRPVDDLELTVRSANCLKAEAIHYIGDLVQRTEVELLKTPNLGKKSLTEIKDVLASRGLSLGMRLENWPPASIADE
Chain of E. Coli RNAP (P0A800 whole entry partner): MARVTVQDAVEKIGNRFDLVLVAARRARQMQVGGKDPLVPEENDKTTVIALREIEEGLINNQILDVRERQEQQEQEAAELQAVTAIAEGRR

Row | Compound | MIC S1 (S1; Table 1) [µg/mL] | MIC S26 (S26; Table 1) [µg/mL] | MIC S4 (S4; Table 1) [µg/mL] | MIC S2 ([1]; Table 1) [µg/mL] | MIC E1 (E1; Table 1) [µg/mL] | MIC E2 (E2; Table 1) [µg/mL] | MIC P1 (P1; Table 1) [µg/mL] | MIC P9 (P9; Table 1) [µg/mL] | MIC P9B (P9B; Table 1) [µg/mL] | MIC H3 (H3; Table 1) [µg/mL] | MIC H4 (H4; Table 1) [µg/mL] | IC50 (S. aureus membrane) [µM] | RBC membrane lysis activity (active/inactive) [2] | Hek293 (LD50, μM) [3] [µM] | PMBC (LD50, μM) [4] [µM] | SOL [5] [µM] | IC50 (E. Coli RNAP) [µM] | further results
1 | CCCCCCCC(O)=C1C(=O)C(CCSC)N(C(=O)C2CCCCC2)C1=O (stereo not shown) [24e] | 0.5 (≈ 1.22 µM) | 1 (≈ 2.44 µM) | 2 (≈ 4.88 µM) | 0.5 (≈ 1.22 µM) | 0.25 (≈ 0.61 µM) | 0.5 (≈ 1.22 µM) | 0.12 (≈ 0.293 µM) | 0.12 (≈ 0.293 µM) | 1 (≈ 2.44 µM) | 16 (≈ 39.1 µM) | 2 (≈ 4.88 µM) | > 100 | Inactive^d | >90.9 | >90.9 | >300 |  | 
2 | CCCCCCCCCC(O)=C1C(=O)C(CCSC)N(C(=O)CC(C)CC(C)(C)C)C1=O (stereo not shown) [24k] | 0.5 (≈ 1.07 µM) | 1 (≈ 2.14 µM) | 0.5 (≈ 1.07 µM) | 0.5 (≈ 1.07 µM) | 0.5 (≈ 1.07 µM) | 0.25 (≈ 0.535 µM) | 0.25 (≈ 0.535 µM) | 0.12 (≈ 0.257 µM) | 2 (≈ 4.28 µM) | >64 | 64 (≈ 137 µM) | 68.8 | Active | 10.1 | 90.9 | >300 |  | 
3 | CCCCCCCCCC(O)=C1C(=O)CCN(C(=O)c2ccc(OC)cc2)C1=O [25d] | 8 (≈ 19.9 µM) | 8 (≈ 19.9 µM) | 4 (≈ 9.96 µM) | 4 (≈ 9.96 µM) | 4 (≈ 9.96 µM) | 4 (≈ 9.96 µM) | 2 (≈ 4.98 µM) | 2 (≈ 4.98 µM) | 8 (≈ 19.9 µM) | 64 (≈ 159 µM) | 8 (≈ 19.9 µM) | 69 | Active | 90.9 | 90.9 | 150 to 300 |  | 
4 | CCCCCCCCCCCCC/C(O)=C1\C(=O)[C@@H]2CCCC(=O)N2C1=O [22b] |  |  |  |  |  |  |  |  |  |  |  | > 100 | Active | 90.9 | >90.9 | 38 to 75 | > 100 | 
5 | CCCCCCC(=O)N1CC(=O)C(=C(O)CC(C)CC(C)(C)C)C1=O (stereo not shown) [27h] |  |  |  |  |  |  |  |  |  |  |  |  |  | 30.3 | 90.9 | 150 to 300 | > 100 | MIC S1 (S1; Table 2): 0.25 µg/mL (≈ 0.711 µM); MIC S26 (S26; Table 2): 0.5 µg/mL (≈ 1.42 µM); MIC S4 (S4; Table 2): 0.5 µg/mL (≈ 1.42 µM); MIC S2 ([1]; Table 2): 0.5 µg/mL (≈ 1.42 µM); MIC E1 (E1; Table 2): 0.25 µg/mL (≈ 0.711 µM); MIC E2 (E2; Table 2): 0.25 µg/mL (≈ 0.711 µM); MIC P1 (P1; Table 2): <0.06 µg/mL; MIC P9 (P9; Table 2): <0.06 µg/mL; MIC P9B (P9B; Table 2): 1 µg/mL (≈ 2.85 µM); MIC H3 (H3; Table 2): 2 µg/mL (≈ 5.69 µM); MIC H4 (H4; Table 2 and its footnote f): 2 µg/mL (≈ 5.69 µM)
6 | CC(C)CC1C(=O)C(=C(O)CCCCCc2ccccc2)C(=O)N1C(=O)c1ccccc1 (stereo not shown) [30a] |  |  |  |  |  |  |  |  |  |  |  | > 100 | Inactive^d | >90.9 | 90.9 | >300 |  | MIC S1 (S1; Table 2): 2 µg/mL (≈ 4.61 µM); MIC S26 (S26; Table 2): 4 µg/mL (≈ 9.23 µM); MIC S4 (S4; Table 2): 2 µg/mL (≈ 4.61 µM); MIC S2 ([1]; Table 2): 2 µg/mL (≈ 4.61 µM); MIC E1 (E1; Table 2): 2 µg/mL (≈ 4.61 µM); MIC E2 (E2; Table 2): 2 µg/mL (≈ 4.61 µM); MIC P1 (P1; Table 2): 1 µg/mL (≈ 2.31 µM); MIC P9 (P9; Table 2): 1 µg/mL (≈ 2.31 µM); MIC P9B (P9B; Table 2): 4 µg/mL (≈ 9.23 µM); MIC H3 (H3; Table 2): >64 µg/mL; MIC H4 (H4; Table 2 and its footnote f): 8 µg/mL (≈ 18.5 µM)
7 | CCCCCCCCCCCC(O)=C1C(=O)C(CCSC)N(C(C)=O)C1=O (stereo not shown) [24b] | 0.25 (≈ 0.629 µM) | 2 (≈ 5.03 µM) | 1 (≈ 2.52 µM) | 1 (≈ 2.52 µM) | <0.06 | <0.06 | <0.06 | <0.06 | 0.5 (≈ 1.26 µM) | 2 (≈ 5.03 µM) | 2 (≈ 5.03 µM) |  |  | 30.3 | 90.9 | >300 | 25 | 
